# Measurements published in patent US20260285850A1, “SUBSTITUTED OXAZOLIDINONES AND IMIDAZOLINONES AS HERBICIDES” (FMC CORPORATION, priority 2023, published 2026).
# Tests used:
# Format in all cases: in vivo
# [1] = test system: ryegrass, Italian (italian ryegrass, Lolium multiflorum); assay: Test A postemergence application, visual injury rating 0-100
# How it was run: (§1)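 Seeds sown in loam-sand blend got a preemergence directed soil spray, or emerged plants (2-10 cm, one- to two-leaf) got a postemergence spray, of compound in non-phytotoxic solvent with surfactant. After 10 days in greenhouse, injury rated visually versus untreated controls on a 0 (no effect) to 100 (complete control) scale.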
# [2] = test system: horseweed (Erigeron canadensis); assay: as above
# How it was run: as §1
# [3] = test system: oat, wild (wild oat, Avena fatua); assay: as above
# How it was run: as §1
# [4] = test system: blackgrass (Alopecurus myosuroides); assay: as above
# How it was run: as §1
# [5] = test system: galium (catchweed bedstraw, Galium aparine); assay: as above
# How it was run: as §1
# corn (Zea mays) [6] = assay: as above
# How it was run: as §1
# [7] = test system: barnyardgrass (Echinochloa crus-galli); assay: as above
# How it was run: as §1
# [8] = test system: green foxtail (Setaria viridis); assay: as above
# How it was run: as §1
# [9] = test system: wheat (Triticum aestivum); assay: as above
# How it was run: as §1
# kochia (Bassia scoparia) [10] = assay: as above
# How it was run: as §1
# [11] = test system: ragweed (common ragweed, Ambrosia artemisiifolia); assay: as above
# How it was run: as §1
# soybean (Glycine max) [12] = assay: as above
# How it was run: as §1
# [13] = test system: palmer (palmer amaranth, palmer pigweed, Amaranthus palmeri); assay: as above
# How it was run: as §1
# [14] = test system: ryegrass, Italian (italian ryegrass, Lolium multiflorum); assay: Test A preemergence soil spray, visual injury rating 0-100; conditions: 10 days
# How it was run: as §1
# [15] = test system: oat, wild (wild oat, Avena fatua); assay: as above; conditions: 10 days
# How it was run: as §1
# [16] = test system: blackgrass (Alopecurus myosuroides); assay: as above; conditions: 10 days
# How it was run: as §1
# corn (Zea mays) [17] = assay: as above; conditions: 10 days
# How it was run: as §1
# [18] = test system: barnyardgrass (Echinochloa crus-galli); assay: as above; conditions: 10 days
# How it was run: as §1
# [19] = test system: green foxtail (Setaria viridis); assay: as above; conditions: 10 days
# How it was run: as §1
# [20] = test system: wheat (Triticum aestivum); assay: as above; conditions: 10 days
# How it was run: as §1
# kochia (Bassia scoparia) [21] = assay: as above; conditions: 10 days
# How it was run: as §1
# [22] = test system: ragweed (common ragweed, Ambrosia artemisiifolia); assay: as above; conditions: 10 days
# How it was run: as §1
# soybean (Glycine max) [23] = assay: as above; conditions: 10 days
# How it was run: as §1
# [24] = test system: palmer (palmer amaranth, palmer pigweed, Amaranthus palmeri); assay: as above; conditions: 10 days
# How it was run: as §1
# [25] = test system: barnyardgrass (Echinochloa crusgalli); assay: Test B flooded paddy test, visual plant response rating 0-100; conditions: 250 g ai/ha, Flood, applied to paddy water, evaluated after 13 days
# How it was run: (§2)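 Plants were grown to the 2-leaf stage, then pots were flooded to 3 cm above the soil and compound was applied directly to the paddy water, with that depth kept throughout.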
# [26] = test system: ducksalad (Heteranthera limosa); assay: as above; conditions: 250 g ai/ha, Flood, applied to paddy water, evaluated after 13 days
# How it was run: as §2
# [27] = test system: sedge, umbrella (small-flower umbrella sedge, Cyperus difformis); assay: as above; conditions: 250 g ai/ha, Flood, applied to paddy water, evaluated after 13 days
# How it was run: as §2
# rice (Oryza sativa) = assay: as above; conditions: 250 g ai/ha, Flood, applied to paddy water, evaluated after 13 days
# How it was run: as §2
# [28] = 62 g ai/ha, postemergence, 10 days, 0 = no effect, 100 = complete control
# [29] = Postemergence, 16 g ai/ha, greenhouse 10 days, 0 no effect, 100 complete control
# [30] = 62 g ai/ha, 0 = no effect, 100 = complete control
smiles,measurement,setting,value
CCOC(=O)C1CC(NC(=O)C2(C)CN(c3cc(F)cc(F)c3)C(=O)O2)C1 (stereo not shown) [Compound 125],"Ryegrass, Italian plant response rating (0-100)",[1]; [28],70
same,"Ryegrass, Italian plant response rating (0 to 100 scale)",[1]; [29],20
same,Horseweed plant response rating (0-100),[2]; [28],20
same,Horseweed plant response rating (0 to 100 scale),[2]; [29],0
same,"Oat, Wild plant response rating (0-100)",[3]; [28],90
same,"Oat, Wild plant response rating (0 to 100 scale)",[3]; [29],50
same,Blackgrass plant response rating (0-100),[4]; [28],90
same,Blackgrass plant response rating (0 to 100 scale),[4]; [29],90
same,Galium plant response rating (0-100),[5]; [28],60
same,Galium plant response rating (0 to 100 scale),[5]; [29],30
same,Corn plant response rating (0-100),corn (Zea mays) [6]; [28],100
same,Corn plant response rating (0 to 100 scale),corn (Zea mays) [6]; [29],90
same,Barnyardgrass plant response rating (0-100),[7]; [28],100
same,Barnyardgrass plant response rating (0 to 100 scale),[7]; [29],60
same,"Foxtail, Green plant response rating (0-100)",[8]; [28],90
same,"Foxtail, Green plant response rating (0 to 100 scale)",[8]; [29],80
same,Wheat plant response rating (0-100),[9]; [28],90
same,Wheat plant response rating (0 to 100 scale),[9]; [29],80
same,Kochia plant response rating (0-100),kochia (Bassia scoparia) [10]; [28],80
same,Kochia plant response rating (0 to 100 scale),kochia (Bassia scoparia) [10]; [29],30
same,Ragweed plant response rating (0-100),[11]; [28],50
same,Ragweed plant response rating (0 to 100 scale),[11]; [29],20
same,Soybean plant response rating (0-100),soybean (Glycine max) [12]; [28],70
same,Soybean plant response rating (0 to 100 scale),soybean (Glycine max) [12]; [29],50
same,"Pigweed, Palmer plant response rating (0-100)",[13]; [28],70
same,"Pigweed, Palmer plant response rating (0 to 100 scale)",[13]; [29],10
same,"Ryegrass, Italian plant response rating","[14]; 16 g ai/ha, 0 to 100 scale",0
same,"Ryegrass, Italian plant response rating (0-100)",[14]; [30],90
same,"Oat, Wild plant response rating","[15]; 16 g ai/ha, 0 to 100 scale",90
same,"Oat, Wild plant response rating (0-100)",[15]; [30],90
same,Blackgrass plant response rating,"[16]; 16 g ai/ha, 0 to 100 scale",50
same,Blackgrass plant response rating (0-100),[16]; [30],90
same,Corn plant response rating,"corn (Zea mays) [17]; 16 g ai/ha, 0 to 100 scale",0
same,Corn plant response rating (0-100),corn (Zea mays) [17]; [30],90
same,Barnyardgrass plant response rating,"[18]; 16 g ai/ha, 0 to 100 scale",0
same,Barnyardgrass plant response rating (0-100),[18]; [30],50
same,"Foxtail, Green plant response rating","[19]; 16 g ai/ha, 0 to 100 scale",10
same,"Foxtail, Green plant response rating (0-100)",[19]; [30],90
same,Wheat plant response rating,"[20]; 16 g ai/ha, 0 to 100 scale",30
same,Wheat plant response rating (0-100),[20]; [30],60
same,Kochia plant response rating,"kochia (Bassia scoparia) [21]; 16 g ai/ha, 0 to 100 scale",0
same,Kochia plant response rating (0-100),kochia (Bassia scoparia) [21]; [30],90
same,Ragweed plant response rating,"[22]; 16 g ai/ha, 0 to 100 scale",0
same,Ragweed plant response rating (0-100),[22]; [30],20
same,Soybean plant response rating,"soybean (Glycine max) [23]; 16 g ai/ha, 0 to 100 scale",10
same,Soybean plant response rating (0-100),soybean (Glycine max) [23]; [30],0
same,"Pigweed, Palmer plant response rating","[24]; 16 g ai/ha, 0 to 100 scale",20
same,"Pigweed, Palmer plant response rating (0-100)",[24]; [30],50
same,"Plant response rating, Barnyardgrass (0 to 100 scale, 0 is no effect and 100 is complete control)",[25],0
same,"Plant response rating, Ducksalad (0 to 100 scale, 0 is no effect and 100 is complete control)",[26],0
same,"Plant response rating, Sedge, Umbrella (0 to 100 scale, 0 is no effect and 100 is complete control)",[27],0
same,"Plant response rating, Rice (0 to 100 scale, 0 is no effect and 100 is complete control)",rice (Oryza sativa),0
